Reference: paper PMC4106271 (Journal of Medicinal Chemistry, 2014)

Molecular target: T1, α1β2γ2S GABAA receptors (Homo sapiens, UniProt P14867+P47870)
T1 construct: expressed in transfected cells; host or cells: Xenopus laevis oocytes injected with cRNA (pCMV cDNA templates)
Assay: not given
Details: 100 μM; cited from earlier work

T1 sequence (P14867 28-456): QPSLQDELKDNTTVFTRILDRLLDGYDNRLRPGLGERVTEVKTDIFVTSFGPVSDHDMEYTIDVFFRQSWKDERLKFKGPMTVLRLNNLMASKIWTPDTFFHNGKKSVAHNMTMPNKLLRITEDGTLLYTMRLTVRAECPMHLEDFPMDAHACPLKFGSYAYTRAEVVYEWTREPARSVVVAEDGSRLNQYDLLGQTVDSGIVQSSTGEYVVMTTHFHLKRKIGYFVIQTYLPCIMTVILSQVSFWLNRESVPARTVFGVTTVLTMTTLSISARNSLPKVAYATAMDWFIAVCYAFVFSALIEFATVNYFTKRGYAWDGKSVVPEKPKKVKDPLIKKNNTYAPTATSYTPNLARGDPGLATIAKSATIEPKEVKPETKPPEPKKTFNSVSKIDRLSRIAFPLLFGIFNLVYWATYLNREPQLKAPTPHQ
T1 sequence (P47870 26-512): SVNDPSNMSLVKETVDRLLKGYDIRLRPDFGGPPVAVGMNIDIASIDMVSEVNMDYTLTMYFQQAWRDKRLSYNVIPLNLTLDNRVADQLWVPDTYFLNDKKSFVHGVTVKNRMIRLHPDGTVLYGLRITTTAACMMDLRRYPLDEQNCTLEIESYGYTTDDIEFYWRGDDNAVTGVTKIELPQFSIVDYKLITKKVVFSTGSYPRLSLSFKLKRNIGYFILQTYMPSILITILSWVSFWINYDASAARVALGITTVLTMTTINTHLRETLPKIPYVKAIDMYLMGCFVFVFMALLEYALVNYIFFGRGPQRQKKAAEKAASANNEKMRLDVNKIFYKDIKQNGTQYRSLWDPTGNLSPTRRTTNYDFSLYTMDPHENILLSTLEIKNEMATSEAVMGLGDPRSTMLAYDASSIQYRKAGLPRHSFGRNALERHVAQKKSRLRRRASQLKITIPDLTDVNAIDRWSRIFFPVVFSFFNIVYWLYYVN
T1 sequence (P18507 40-467 isoform P18507-1 partner limits assumed): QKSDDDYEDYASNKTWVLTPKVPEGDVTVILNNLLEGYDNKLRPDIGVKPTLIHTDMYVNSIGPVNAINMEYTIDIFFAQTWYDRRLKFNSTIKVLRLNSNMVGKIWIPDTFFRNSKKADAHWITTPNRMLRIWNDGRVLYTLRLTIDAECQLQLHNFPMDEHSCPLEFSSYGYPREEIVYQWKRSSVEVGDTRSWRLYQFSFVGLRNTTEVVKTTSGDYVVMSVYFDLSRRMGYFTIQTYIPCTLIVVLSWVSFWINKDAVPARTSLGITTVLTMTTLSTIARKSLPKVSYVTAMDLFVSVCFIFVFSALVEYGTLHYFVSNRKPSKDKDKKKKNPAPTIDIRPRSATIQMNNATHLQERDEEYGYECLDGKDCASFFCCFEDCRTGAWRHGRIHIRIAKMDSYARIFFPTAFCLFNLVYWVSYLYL

SMILES | potentiation of IGABA
O=C(/C=C/C=C/c1ccc2c(c1)OCO2)N1CCCCC1 [piperine, 1-piperoylpiperidine] | 226% ± 26%

Same assay, conditions: Hill coefficient; cited from earlier work

SMILES | nH
O=C(/C=C/C=C/c1ccc2c(c1)OCO2)N1CCCCC1 [piperine, 1-piperoylpiperidine] | 1.5 ± 0.2

Molecular target: T1, α1β2γ2S GABAA receptors
Assay: Two-microelectrode voltage clamp, IGABA modulation, α1β2γ2S
Type: cell-based
Details: 100 μM compound, GABA EC3–7, Xenopus laevis oocytes, mean ± SEM
Procedure: Preparation of stage V–VI oocytes from X. laevis and synthesis of capped runoff poly(A) cRNA transcripts from linearized cDNA templates (pCMV vector) was performed as previously described.[49] […] Follicle membranes from isolated oocytes were enzymatically digested with 2 mg/mL collagenase (type 1A, Sigma–Aldrich, Vienna, Austria).
Selected oocytes were injected with 10–50 nL of DEPC-treated water (diethyl pyrocarbonate, Sigma, Vienna, Austria) containing the different GABAA cRNAs at a concentration of approximately 300–3000 pg·nL^–1·subunit^–1.
To ensure expression of the γ2S subunit in the case of α1/2/3/5β2/3γ2S receptors, cRNAs were mixed in a ratio of 1:1:10. […] The amount of cRNAs was determined by means of a NanoDrop ND-1000 (Kisker-Biotech, Steinfurt, Germany).
Oocytes were stored at +18 °C in modified ND96 solution (90 mM NaCl, 1 mM CaCl2, 1 mM KCl, 1 mM MgCl2·6H2O, and 5 mM HEPES [4-(2-hydroxyethyl)-1-piperazineethanesulfonic acid], pH 7.4, all from Sigma–Aldrich, Vienna, Austria).
Chloride currents through GABAA receptors (IGABA) were measured at room temperature (+21 ± 1 °C) by means of a two-microelectrode voltage clamp technique making use of a Turbo TEC-05X amplifier (npi electronic, Tamm, Germany). IGABA were elicited at a holding potential of –70 mV. Data acquisition was carried out by means of an Axon Digidata 1322A interface using pCLAMP v.10 (Molecular Devices, Sunnyvale, CA). The modified ND96 solution was used as bath solution.
GABA and the studied derivatives were applied by means of the ScreeningTool (npi electronic, Tamm, Germany) fast perfusion system as described previously.[50] To elicit IGABA, the chamber was perfused with 120 μL of GABA- or compound-containing solution at a volume rate of 300 μL/s.[34] Care was taken to account for possible slow recovery from increasing levels of desensitization in the presence of high drug concentrations. The duration of washout periods was therefore extended from 1.5 min (<10 μM compounds) to 30 min (≥10 μM compounds). Oocytes with maximal current amplitudes >3 μA were discarded to exclude voltage clamp errors.
Stimulation of chloride currents by modulators of the GABAA receptor was measured at a GABA concentration eliciting between 3% and 7% of the maximal current amplitude (EC3–7). The GABA EC3–7 was determined for each oocyte individually. Enhancement of the chloride current was defined as (IGABA+compd/IGABA) – 1, where IGABA+compd is the current response in the presence of a given compound and IGABA is the control GABA current. IGABA-max reflects the maximal IGABA enhancement. Concentration–response curves were generated and the data were fitted by nonlinear regression analysis using Origin Software (OriginLab Corp.). Data were fitted to the equation 1/(1 + (EC50/[compound])^nH), where nH is the Hill coefficient. […] Statistical significance was calculated by paired Student t-test with a confidence interval of <0.05.

SMILES | activation at 100 µM | modulation of IGABA (%)
CSc1ccc(NC(=O)/C=C/C=C/c2ccc3c(c2)OCO3)cc1 [Compound 1] | 0% | 
COc1cc(NC(=O)/C=C/C=C/c2ccc3c(c2)OCO3)cc(OC)c1OC [Compound 2] | 10% | 
O=C(/C=C/C=C/c1ccc2c(c1)OCO2)Nc1c(F)cc(F)cc1F [Compound 3] | 5 ± 5% | 
CN(C)CCNC(=O)/C=C/C=C/c1ccc2c(c1)OCO2 [Compound 4] | -15% | 
COc1ccc(CCNC(=O)/C=C/C=C/c2ccc3c(c2)OCO3)cc1OC [Compound 5] | -2% | 
O=C(/C=C/C=C/c1ccc2c(c1)OCO2)Nc1cccnc1 [Compound 6] | -7% | 
O=C(/C=C/C=C/c1ccc2c(c1)OCO2)Nc1ccc(Cl)cn1 [Compound 7] | 8 ± 7% | 
O=C(/C=C/C=C/c1ccc2c(c1)OCO2)NCCCc1ccccc1 [Compound 8] | -8% | 
O=C(/C=C/C=C/c1ccc2c(c1)OCO2)Nc1ccccc1O [Compound 9] | 0% | 
O=C(/C=C/C=C/c1ccc2c(c1)OCO2)Nc1ccc([N+](=O)[O-])cc1O [Compound 10] | 1 ± 7% | 
CCCCNC(=O)/C=C/C=C/c1ccc2c(c1)OCO2 [Compound 11] | 51 ± 11% | 
O=C(/C=C/C=C/c1ccc2c(c1)OCO2)NCCC(c1ccccc1)c1ccccc1 [Compound 12] | -6% | 
O=C(/C=C/C=C/c1ccc2c(c1)OCO2)NC1CCCC1 [Compound 13] | 33 ± 17% | 
O=C(/C=C/C=C/c1ccc2c(c1)OCO2)NCc1ccccc1 [Compound 14] | 0% | 
CCCCCCCCCCNC(=O)/C=C/C=C/c1ccc2c(c1)OCO2 [Compound 15] | -1% | 
O=C(/C=C/C=C/c1ccc2c(c1)OCO2)NC12CC3CC(CC(C3)C1)C2 [Compound 16] | -6% | 
O=C(/C=C/c1ccc2c(c1)OCO2)N1CCCCC1 [Compound 17] | 79 ± 8% | 
CC(C)N(C(=O)/C=C/c1ccc2c(c1)OCO2)C(C)C [Compound 18] | 66 ± 30% | 
CN(C)C(=O)/C=C/C=C/c1ccc2c(c1)OCO2 [Compound 20] | 61 ± 28% | 
CCCCCCN(CCCCCC)C(=O)/C=C/C=C/c1ccc2c(c1)OCO2 [Compound 26] | 0% | 
O=C(/C=C/C=C/c1ccc2c(c1)OCO2)N(C1CCCCC1)C1CCCCC1 [Compound 27] | 13 ± 13% | 
O=C(/C=C/C=C/c1ccc2c(c1)OCO2)N1CCOCC1 [Compound 29] | 0% | 
CN1CCN(C(=O)/C=C/C=C/c2ccc3c(c2)OCO3)CC1 [Compound 31] | -20% | 
CCN1CCN(C(=O)/C=C/C=C/c2ccc3c(c2)OCO3)CC1 [Compound 32] | -5% | 
O=C(/C=C/C=C/c1ccc2c(c1)OCO2)N1CCCC(O)C1 (centres unmarked) [Compound 36] | 33 ± 9% | 
O=C(/C=C/C=C/c1ccc2c(c1)OCO2)N1CCC(O)CC1 [Compound 37] | 26 ± 14% | 
O=C(/C=C/C=C/c1ccc2c(c1)OCO2)N1CCN(CCOCCO)CC1 [Compound 40] | 12 ± 8% | 

SMILES | activation at 100 µM | modulation of IGABA (%)
COc1ccccc1N1CCN(C(=O)/C=C/C=C/c2ccc3c(c2)OCO3)CC1 [Compound 41] | 5 ± 5% | 
O=C(/C=C/C=C/c1ccc2c(c1)OCO2)N1CCN(Cc2ccccc2)CC1 [Compound 42] | 48 ± 12% | 
S=C(/C=C/C=C/c1ccc2c(c1)OCO2)N1CCCCC1 [Compound 44] | 17 ± 17% | 
C(/C=C/c1ccc2c(c1)OCO2)=C\CN1CCCCC1 [Compound 45] | -16% | 
O=C(c1ccc(-c2ccc3c(c2)OCO3)cc1)N1CCCCC1 [Compound 46] | 42% | 42 ± 1 %
CCCCN(CCCC)C(=O)c1ccc(-c2ccc3c(c2)OCO3)cc1 [Compound 48] | 49 ± 7% | 
CC(C)N(C(=O)c1ccc(-c2ccc3c(c2)OCO3)cc1)C(C)C [Compound 49] | 30 ± 15% | 
CCCN(CCC)C(=O)c1cccc(-c2ccc3c(c2)OCO3)c1 [Compound 51, 3-(Benzo[d][1,3]dioxol-5-yl)-N,N-dipropylbenzamide] | 280% | 280 ± 52 %
CCCCN(CCCC)C(=O)c1cccc(-c2ccc3c(c2)OCO3)c1 [Compound 52] | 63 ± 12% | 
O=C(c1ccccc1-c1ccc2c(c1)OCO2)N1CCCCC1 [Compound 54] | 34 ± 8% | 
CCCN(CCC)C(=O)c1ccccc1-c1ccc2c(c1)OCO2 [Compound 55] | 79 ± 24% | 
CC(C)N(C(=O)c1ccccc1-c1ccc2c(c1)OCO2)C(C)C [Compound 57] | 15 ± 15% | 
O=C(c1ccc(-c2ccc3c(c2)OCO3)s1)N1CCCCC1 [Compound 58] | -5% | 
CCCCN(CCCC)C(=O)c1ccc(-c2ccc3c(c2)OCO3)s1 [Compound 60] | 51 ± 21% | 
CC(C)N(C(=O)c1ccc(-c2ccc3c(c2)OCO3)s1)C(C)C [Compound 61] | 11 ± 2% | 
O=C(c1cccc2c(-c3ccc4c(c3)OCO4)cccc12)N1CCCCC1 [Compound 62, [5-(Benzo[d][1,3]dioxol-5-yl)naphthalen-1-yl](piperidin-1-yl)methanone] | 13 ± 2% | 
CCCN(CCC)C(=O)c1cccc2c(-c3ccc4c(c3)OCO4)cccc12 [Compound 63] | 12 ± 4% | 
CCCCN(CCCC)C(=O)c1cccc2c(-c3ccc4c(c3)OCO4)cccc12 [Compound 64] | 4 ± 4% | 
CCCN(CCC)C(=O)/C=C/c1cccc2cc3c(cc12)OCO3 [Compound 66] | 67 ± 23% | 
CCCCN(CCCC)C(=O)/C=C/c1cccc2cc3c(cc12)OCO3 [Compound 67] | 18 ± 9% | 
O=C(/C=C/c1ccc2cc3c(cc2c1)OCO3)N1CCCCC1 [Compound 68] | -1% | 
CCCN(CCC)C(=O)/C=C/c1ccc2cc3c(cc2c1)OCO3 [Compound 69] | 74 ± 1% | 
CCCCN(CCCC)C(=O)/C=C/c1ccc2cc3c(cc2c1)OCO3 [Compound 70] | 32% | 32 ± 12%
O=C(c1cccc2cc3c(cc12)OCO3)N1CCCCC1 [Compound 71] | 32 ± 10% | 
CC(C)CN(CC(C)C)C(=O)c1cccc2cc3c(cc12)OCO3 [Compound 74] | 60 ± 17% | 
O=C(c1ccc2cc3c(cc2c1)OCO3)N1CCCCC1 [Compound 75] | 58 ± 29% | 

Same assay, conditions: Hill coefficient of concentration–response curve

SMILES | nH
CC(C)N(C(=O)/C=C/C=C/c1ccc2c(c1)OCO2)C(C)C [Compound 22] | 2.3 ± 0.2
CC1CCN(C(=O)/C=C/C=C/c2ccc3c(c2)OCO3)CC1 [Compound 35] | 1.9 ± 0.3
O=C(/C=C/C=C/c1ccc2c(c1)OCO2)N(CC(F)(F)F)CC(F)(F)F [Compound 43] | 1.6 ± 0.2
CCCN(CCC)C(=O)c1ccc(-c2ccc3c(c2)OCO3)cc1 [Compound 47] | 1.2 ± 0.2
CC(C)N(C(=O)c1cccc(-c2ccc3c(c2)OCO3)c1)C(C)C [Compound 53] | 1.5 ± 0.2
CCCCN(CCCC)C(=O)c1ccccc1-c1ccc2c(c1)OCO2 [Compound 56] | 1.2 ± 0.0
CCCN(CCC)C(=O)c1cccc2cc3c(cc12)OCO3 [Compound 72] | 1.9 ± 0.2
CCCCN(CCCC)C(=O)c1cccc2cc3c(cc12)OCO3 [Compound 73] | 2.7 ± 0.2

Same assay, conditions: IGABA enhancement, GABA EC3–7, Xenopus oocytes

SMILES | EC50
CC(C)N(C(=O)/C=C/C=C/c1ccc2c(c1)OCO2)C(C)C [Compound 22] | 86.7 ± 13.9 µM
CC1CCN(C(=O)/C=C/C=C/c2ccc3c(c2)OCO3)CC1 [Compound 35] | 67.7 ± 11 µM
O=C(/C=C/C=C/c1ccc2c(c1)OCO2)N(CC(F)(F)F)CC(F)(F)F [Compound 43] | 23.1 ± 3.3 µM
CCCN(CCC)C(=O)c1ccc(-c2ccc3c(c2)OCO3)cc1 [Compound 47] | 70.8 ± 21.1 µM
CC(C)N(C(=O)c1cccc(-c2ccc3c(c2)OCO3)c1)C(C)C [Compound 53] | 55.3 ± 17.6 µM
CCCCN(CCCC)C(=O)c1ccccc1-c1ccc2c(c1)OCO2 [Compound 56] | 36.8 ± 2 µM
CCCN(CCC)C(=O)c1cccc2cc3c(cc12)OCO3 [Compound 72] | 102 ± 11.2 µM
CCCCN(CCCC)C(=O)c1cccc2cc3c(cc12)OCO3 [Compound 73] | 31.8 ± 5.3 µM
